Test results: patent publication US6905841B2, “Enzymatic substrates for detecting Pseudomonas aeruginas” (Biomerieux S.A., priority 1999, dated 2005)
Like-named read-outs stand apart in the source and are kept apart here.

Experiments:
β-alanine aminopeptidase [1] = settings: Chryseobacterium indologenes; 10 strains tested
β-alanine aminopeptidase [2] = test system: β-alanine aminopeptidase
β-alanine aminopeptidase [3] = settings: Shigella dysenteriae; 10 strains tested
β-alanine aminopeptidase [4] = test system: β-alanine aminopeptidase; remark: listed apart in the source
β-alanine aminopeptidase [5] = settings: 137 strains tested
β-alanine aminopeptidase [6] = assay type: cell-based; settings: Shigella flexneri; 10 strains tested
β-alanine aminopeptidase [7] = settings: Oligella urethralis; 10 strains tested
β-alanine aminopeptidase [8] = settings: Pseudomonas stutzeri; 10 strains tested
β-alanine aminopeptidase [9] = assay type: cell-based; settings: Shigella boydii; 10 strains tested
β-alanine aminopeptidase [10] = assay type: cell-based, Ochrobactrum anthropi
β-alanine aminopeptidase [11] = test system: β-alanine aminopeptidase; remark: listed apart in the source
β-alanine aminopeptidase [12] = settings: Comamonas testoteroni; 10 strains tested
β-alanine aminopeptidase [13] = assay: Two-substrate semi-solid medium (Trypticase Soy agar), colony color; assay type: cell-based; settings: agar also contains 6-Chloro-3-indolyl-β-D-glycopyranoside and 3,5-Dihydroxy-2-naphthoic acid, 35-37° C., 18-24 hours
Experimental: The medium was poured out and inoculated as follows: • 10 dishes with pure cultures corresponding to five strains of Pseudomonas aeruginosa and five of Pseudomonas mendocina, and • 2 dishes with a mixture of two strains, one being of Pseudomonas aeruginosa and the other of Pseudomonas mendocina. The Petri dishes were incubated at 35-37° C. After 18-24 hours of incubation, the color of the colonies was recorded.

[14] = Ralstonia pickettii, 10 strains tested
[15] = Pseudomonas mendocina, 10 strains tested
[16] = Ochrobactrum anthropi, 11 strains tested
[17] = Chromobacterium violaceum, 11 strains tested

**Q.** Which results are given for Cc1cc(=O)oc2cc(NC(=O)CCN)ccc12?
**A.** Borderline results (β-alanine aminopeptidase [1]): 0; Number of negative results (β-alanine aminopeptidase [1]): 10; Number of positive results (β-alanine aminopeptidase [1]): 0; percentage of positive results (β-alanine aminopeptidase [2]; Ralstonia pickettii strains): 20%; Borderline results (β-alanine aminopeptidase [2]; [14]): 0; Number of negative results (β-alanine aminopeptidase [2]; [14]): 8; Number of positive results (β-alanine aminopeptidase [2]; [14]): 2; Borderline results (β-alanine aminopeptidase [3]): 0; Number of negative results (β-alanine aminopeptidase [3]): 10; Number of positive results (β-alanine aminopeptidase [3]): 0; percentage of positive results (β-alanine aminopeptidase [4]; Pseudomonas mendocina strains): 100%; Borderline results (β-alanine aminopeptidase [4]; [15]): 0; Number of negative results (β-alanine aminopeptidase [4]; [15]): 0; Number of positive results (β-alanine aminopeptidase [4]; [15]): 10; percentage of positive results (β-alanine aminopeptidase [5]; Pseudomonas aeruginosa strains): 97.8%; Borderline results (β-alanine aminopeptidase [5]; Pseudomonas aeruginosa): 1; Number of negative results (β-alanine aminopeptidase [5]; Pseudomonas aeruginosa): 2; Number of positive results (β-alanine aminopeptidase [5]; Pseudomonas aeruginosa): 134; Borderline results (β-alanine aminopeptidase [6]): 0; Number of negative results (β-alanine aminopeptidase [6]): 10; Number of positive results (β-alanine aminopeptidase [6]): 0; Borderline results (β-alanine aminopeptidase [7]): 0; Number of negative results (β-alanine aminopeptidase [7]): 10; Number of positive results (β-alanine aminopeptidase [7]): 0; Borderline results (β-alanine aminopeptidase [8]): 0; Number of negative results (β-alanine aminopeptidase [8]): 10; Number of positive results (β-alanine aminopeptidase [8]): 0; Borderline results (β-alanine aminopeptidase [9]): 0; Number of negative results (β-alanine aminopeptidase [9]): 10; Number of positive results (β-alanine aminopeptidase [9]): 0; percentage of positive results (β-alanine aminopeptidase [10]; Ochrobactrum anthropi strains): 100%; Borderline results (β-alanine aminopeptidase [10]; [16]): 0; Number of negative results (β-alanine aminopeptidase [10]; [16]): 0; Number of positive results (β-alanine aminopeptidase [10]; [16]): 11; percentage of positive results (β-alanine aminopeptidase [11]; Chromobacterium violaceum strains): 10%; Borderline results (β-alanine aminopeptidase [11]; [17]): 1; Number of negative results (β-alanine aminopeptidase [11]; [17]): 9; Number of positive results (β-alanine aminopeptidase [11]; [17]): 1; Borderline results (β-alanine aminopeptidase [12]): 0; Number of negative results (β-alanine aminopeptidase [12]): 10; Number of positive results (β-alanine aminopeptidase [12]): 0

**Q.** With CNc1ccc(N(C)C(=O)CCN)cc1 [β-Alanyl-N,N′-dimethyl-p-phenylene-diamine] as the compound, how does the “color of the colonies” value (β-alanine aminopeptidase [13]; Pseudomonas aeruginosa) read?
**A.** Blue colonies with a blue halo

**Q.** And the “color of the colonies” value (β-alanine aminopeptidase [13]; Pseudomonas mendocina)?
**A.** purple colonies with a blue halo
